Data reported in patent US20230096028A1, “BICYCLIC HETEROCYCLYL COMPOUNDS AND USES THEREOF” (Revolution Medicines, Inc., priority 2019, published 2023).
Like-named read-outs stand apart in the source and are kept apart here.

What was measured:
[1] = target: T1, SOS1 catalytic domain (residues 564-1049) (Homo sapiens, UniProt Q07889); assay: Mode of Action Assay: inhibition of SOS1 nucleotide exchange activity (SOS1 TR-FRET IC50 Assay)
T1 sequence (Q07889 564-1049): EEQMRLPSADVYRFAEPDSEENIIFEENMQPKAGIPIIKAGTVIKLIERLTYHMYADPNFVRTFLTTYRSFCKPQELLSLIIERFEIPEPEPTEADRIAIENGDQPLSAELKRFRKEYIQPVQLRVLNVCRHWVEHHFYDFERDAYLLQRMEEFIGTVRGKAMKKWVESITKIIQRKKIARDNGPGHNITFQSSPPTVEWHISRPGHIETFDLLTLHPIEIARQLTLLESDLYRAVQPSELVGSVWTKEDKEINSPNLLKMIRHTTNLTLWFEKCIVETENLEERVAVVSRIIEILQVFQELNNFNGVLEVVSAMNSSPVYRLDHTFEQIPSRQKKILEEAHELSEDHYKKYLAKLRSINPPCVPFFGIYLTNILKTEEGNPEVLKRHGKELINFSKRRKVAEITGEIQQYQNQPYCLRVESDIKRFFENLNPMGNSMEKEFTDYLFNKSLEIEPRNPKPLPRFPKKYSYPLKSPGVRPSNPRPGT

[2] = tested on: PC-9 cells (EGFR Ex19Del); assay: Potency Assay: pERK (SOS1 pERK IC50 Assay, AlphaLISA SureFire Ultra p-ERK1/2); type: cell-based; conditions: Homo sapiens, read-out: SOS1 pERK IC50
Outline: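 Cellular pERK1/2 by AlphaLISA SureFire Ultra after 1 h compound exposure (37° C., highest concentration 10 μM, 3-fold steps, duplicates) of EGFR Ex19Del PC-9 cells seeded the day before. A 4-parameter fit of signal versus log concentration gives IC50.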

[3] = target: T1, SOS1 catalytic domain (residues 564-1049); assay: Potency Assay: binding affinity to SOS1 using Surface Plasmon Resonance (SPR); parameters: SOS1 catalytic domain (residues 564-1049) immobilized on a sensor chip; conditions: immobilized SOS1 catalytic domain (residues 564-1049), read-out: SOS1 SPR Equilibrium Kd
Outline: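 Kd was obtained by plotting binding response, taken just before association ended, versus compound concentration on a Biacore 8K. Compounds flowed at 50 μL/min over streptavidin-captured avi-SOS1 catalytic domain (~6000 RU), followed by buffer dissociation; HEPES 0.01 M/NaCl 0.15 M/0.05% P20 buffer, double-referenced.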

[4] = PC-9 cells (EGFR Ex19Del), 1 hour incubation, AlphaLISA p-ERK1/2

IC50 [1]	IC50 [2, 4]	Kd [3]	SMILES	IC50 ([2]; PC-9, 1 h)
< 1000 nM	< 1000 nM	< 400 nM	C[C@@H](Nc1nc(Cl)nc2c1CN(C(=O)c1cnc[nH]1)C2)c1cc(N)cc(C(F)(F)F)c1 [Example 108]	–
< 1000 nM	> 1000 nM	< 400 nM	Cc1nc2c(c(N[C@H](C)c3cc(N)cc(C(F)(F)F)c3)n1)CN(C(=O)C1CCOCC1)C2 [Example 119, N-[(1R)-1-[3-amino-5-(trifluoromethyl)phenyl]ethyl]-2-methyl-6-(oxane-4-carbonyl)-5H,6H,7H-pyrrolo[3,4-d]pyrimidin-4-amine]	–
> 1000 nM	> 1000 nM	> 400 nM	CC(=O)N1Cc2nc(C)nc(N[C@H](C)c3cc(N)cc(C(F)(F)F)c3)c2C1 [Example 120, 1-(4-{[(1R)-1-[3-amino-5-(trifluoromethyl)phenyl]ethyl]amino}-2-methyl-5H,6H,7H-pyrrolo[3,4-d]pyrimidin-6-yl)ethan-1-one]	–
< 1000 nM	< 1000 nM	< 400 nM	C[C@@H](Nc1nc(C#N)nc2c1CN(C(=O)N1CCOCC1)C2)c1cc(N)cc(C(F)(F)F)c1 [Example 123, 4-{[(1R)-1-[3-amino-5-(trifluoromethyl)phenyl]ethyl]amino}-6-(morpholine-4-carbonyl)-5H,6H,7H-pyrrolo[3,4-d]pyrimidine-2-carbonitrile]	–
< 1000 nM	< 1000 nM	< 400 nM	CNc1nc2c(c(N[C@H](C)c3cc(N)cc(C(F)(F)F)c3)n1)CN(C(=O)N1CCOCC1)C2 [Example 125, N4-[(1R)-1-[3-amino-5-(trifluoro-methyl)phenyl]ethyl]-N2-methyl-6-(morpholine-4-carbonyl)-5H,6H,7H-pyrrolo[3,4-d]pyrimidine-2,4-diamine]	–
> 1000 nM	< 1000 nM	> 400 nM	C[C@@H](Nc1nc(OC(F)(F)F)nc2c1CN(C(=O)N1CCOCC1)C2)c1cc(N)cc(C(F)(F)F)c1 [Example 126, N-[(1R)-1-[3-amino-5-(trifluoro-methyl)phenyl]ethyl]-6-(morpholine-4-carbonyl)-2-(trifluoro-methoxy)-5H,6H,7H-pyrrolo-[3,4-d]pyrimidin-4-amine]	–
< 1000 nM	< 1000 nM	< 400 nM	CCc1nc2c(c(N[C@H](C)c3cc(N)cc(C(F)(F)F)c3)n1)CN(C(=O)N1CCOCC1)C2 [Example 128, N-[(1R)-1-[3-amino-5-(trifluoromethyl)phenyl]ethyl]-2-ethyl-6-(morpholine-4-carbonyl)-5H,6H,7H-pyrrolo[3,4-d]pyrimidin-4-amine]	–
< 1000 nM	< 1000 nM	< 400 nM	C[C@@H](Nc1nc(CO)nc2c1CN(C(=O)N1CCOCC1)C2)c1cc(N)cc(C(F)(F)F)c1 [Example 129, (4-{[(1R)-1-[3-amino-5-(trifluoromethyl)-phenyl]ethyl]amino}-6-(morpholine-4-carbonyl)-5H,6H,7H-pyrrolo[3,4-d]pyrimidin-2-yl)methanol]	–
< 1000 nM	> 1000 nM	< 400 nM	C[C@@H](Nc1nc(CN)nc2c1CN(C(=O)N1CCOCC1)C2)c1cc(N)cc(C(F)(F)F)c1 [Example 130, N-[(1R)-1-[3-amino-5-(trifluoromethyl)phenyl]ethyl]-2-(aminomethyl)-6-(morpholine-4-carbonyl)-5H,6H,7H-pyrrolo[3,4-d]pyrimidin-4-amine]	–
< 1000 nM	< 1000 nM	< 400 nM	C[C@@H](Nc1nc(Br)nc2c1CN(C(=O)N1CCOCC1)C2)c1cc(N)cc(C(F)(F)F)c1 [Example 131, N-[(1R)-1-[3-amino-5-(trifluoro-methyl)phenyl]ethyl]-2-bromo-6-(morpholine-4-carbonyl)-5H,6H,7H-pyrrolo[3,4-d]pyrimidin-4-amine]	–
< 1000 nM	< 1000 nM	< 400 nM	C[C@@H](Nc1nc(C(F)F)nc2c1CN(C(=O)N1CCOCC1)C2)c1cc(N)cc(C(F)(F)F)c1 [Example 132, N-[(1R)-1-[3-amino-5-(trifluoromethyl)phenyl]ethyl]-2-(difluoromethyl)-6-(morpholine-4-carbonyl)-5H,6H,7H-pyrrolo[3,4-d]pyrimidin-4-amine]	–
< 1000 nM	< 1000 nM	< 400 nM	C[C@@H](Nc1nc(I)nc2c1CN(C(=O)N1CCOCC1)C2)c1cc(N)cc(C(F)(F)F)c1 [Example 134, N-[(1R)-1-[3-amino-5-(trifluoromethyl)phenyl]ethyl]-2-iodo-6-(morpholine-4-carbonyl)-5H,6H,7H-pyrrolo[3,4-d]pyrimidin-4-amine]	–
> 1000 nM	> 1000 nM	> 400 nM	Nc1cc(CNc2nc(Cl)nc3c2CN(C(=O)N2CCOCC2)C3)cc(C(F)(F)F)c1 [Example 135, N-{[3-amino-5-(trifluoromethyl)phenyl]methyl}-2-chloro-6-(morpholine-4-carbonyl)-5H,6H,7H-pyrrolo[3,4-d]pyrimidin-4-amine]	–
< 1000 nM	< 1000 nM	< 400 nM	C[C@@H](Nc1nc(Cl)nc2c1CN(C(=O)N1CCOCC1)C2)c1cccc(C(F)(F)F)c1 [Example 137, 2-chloro-6-(morpholine-4-carbonyl)-N-[(1R)-1-[3-(trifluoromethyl)phenyl]ethyl]-5H,6H,7H-pyrrolo[3,4-d]pyrimidin-4-amine]	–
< 1000 nM	< 1000 nM	< 400 nM	C[C@@H](Nc1nc(Cl)nc2c1CN(C(=O)N1CCNc3ncccc31)C2)c1cc(N)cc(C(F)(F)F)c1 [Example 138]	–
> 1000 nM	< 1000 nM	< 400 nM	COc1ccc2c(c1)OCCN2C(=O)N1Cc2nc(Cl)nc(N[C@H](C)c3cc(N)cc(C(F)(F)F)c3)c2C1 [Example 140]	–
< 1000 nM	< 1000 nM	< 400 nM	C[C@@H](Nc1nc(Cl)nc2c1CN(C(=O)N1CCc3ccncc31)C2)c1cc(N)cc(C(F)(F)F)c1 [Example 142]	–
< 1000 nM	< 1000 nM	< 400 nM	C[C@@H](Nc1nc(Cl)nc2c1CN(C(=O)N1CCOC(c3ccncc3)C1)C2)c1cc(N)cc(C(F)(F)F)c1 (stereo partly drawn) [Example 145]	–
< 1000 nM	< 1000 nM	< 400 nM	C[C@@H]1CN(C(=O)N2Cc3nc(Cl)nc(N[C@H](C)c4cc(N)cc(C(F)(F)F)c4)c3C2)C[C@H](C)N1 [Example 146]	–
< 1000 nM	< 1000 nM	< 400 nM	C[C@@H](Nc1nc(Cl)nc2c1CN(C(=O)N1CCS(=O)(=O)CC1)C2)c1cc(N)cc(C(F)(F)F)c1 [Example 148]	–
< 1000 nM	< 1000 nM	< 400 nM	C[C@@H](Nc1nc(Cl)nc2c1CN(C(=O)N1CCOc3cccnc31)C2)c1cc(N)cc(C(F)(F)F)c1 [Example 160]	–
< 1000 nM	< 1000 nM	< 400 nM	C[C@@H](Nc1nc(Cl)nc2c1CC(C(=O)N1CCOCC1)CC2)c1cc(N)cc(C(F)(F)F)c1 (stereo partly drawn) [Example 165, N-[(1R)-1-[3-amino-5-(trifluoromethyl)phenyl]ethyl]-2-chloro-6-(morpholine-4-carbonyl)-5,6,7,8-tetrahydroquinazolin-4-amine]	–
< 1000 nM	< 1000 nM	< 400 nM	COC1(C(=O)N2Cc3nc(Cl)nc(N[C@H](C)c4cccc(C(F)(F)CO)c4)c3C2)CCOCC1 [Example 167, [2-chloro-4-[[(1R)-1-[3-(1,1-difluoro-2-hydroxy-ethyl)phenyl]ethyl]amino]-5,7-dihydropyrrolo[3,4-d]pyrimidin-6-yl]-(4-methoxytetrahydropyran-4-yl)methanone]	–

SMILES	IC50 [1]	IC50 [2, 4]	Kd [3]	IC50 ([2]; PC-9, 1 h)
C[C@@H](Nc1nc(Cl)nc2c1CN(C(=O)OC1CCOCC1)C2)c1cc(N)cc(C(F)(F)F)c1 [Example 115, oxan-4-yl 4-{[(1R)-1-[3-amino-5-(trifluoromethyl)phenyl]ethyl]amino}-2-chloro-5H,6H,7H-pyrrolo[3,4-d]pyrimidine-6-carboxylate]	> 1000 nM	–	< 400 nM	< 1000 nM
Cc1nc2c(c(N[C@H](C)c3cc(N)cc(C(F)(F)F)c3)n1)CN(C(=O)OC1CCOCC1)C2 [Example 118, oxan-4-yl 4-{[(1R)-1-[3-amino-5-(trifluoromethyl)phenyl]ethyl]amino}-2-methyl-5H,6H,7H-pyrrolo[3,4-d]pyrimidine-6-carboxylate]	< 1000 nM	–	> 400 nM	< 1000 nM
